In patent publication US5876694A, “Azavesamicols” (priority 1997, dated 1999):

System: vesamicol receptor
Assay: Ex vivo autoradiography of rat brain
Format: in vivo, male Wistar rats
Settings: 3 hrs after iv
Procedure: Ex-vivo Autoradiographic Studies
Two groups of male Wistar rats (n=2) were used in these experiments. Each animal in the first group received an i.v. injection of (+)-[^125 I]12h (385 uCi in 0.1/ml of 50% aq. EtOH). Similarly, animals in the second group received 330 uCi of (-)-[^125 I]12h (in 0.1 ml of 50% aq. EtOH). After 3 hrs, the animals were sacrificed by decapitation. The brains were carefully removed, embedded in Tissue Tek OCT medium and frozen to […] Twenty micron thick coronal brain slices were subsequently obtained by sectioning rostrocaudally with a Reichert HistoSTAT microtome at -15°. The tissue sections were apposed to Kodak NMC film accompanied by ^125 I-labeled external standards (^125 I-Microscales from Amersham). For delineation of cytoarchitecture, adjacent tissue sections were subjected to Nissl staining.

With `O[C@@H]1CCN(Cc2cccc([125I])c2)C[C@H]1N1CCC(c2ccccc2)CC1` (single isomer, unassigned) [(-)-[^125 I]12h, (+)- and (-)-4-hydroxy-1-(3-[I^125]iodobenzyl)-3-(4-phenyl-piperidinyl)piperidine] the “brain regional distribution: cortex, caudate-putamen, hippocampus and red nucleus” value was “high levels of radioactivity” and the “levels in cortex compared with caudate-putamen” value was “slightly higher than those observed in the caudate-putamen”.
